For one compound, IC50 results are on record in patent US8129527B2, “Analogs of dehydrophenylahistins and their therapeutic use” (Nereus Pharmacuticals, Inc., priority 2006, dated 2012).

In experiment [1] the test system is HL-60 (Mitoxantrone-Sensitive) human acute promyelocytic leukemia. Nature of the experiment: Drug resistant cell line pair, cytotoxicity (Example 10B). It is filed as cell-based. As to conditions: HL-60 Sensitive. The text has this: 2) Human Acute Promyelocytic Leukemia Cell Line Pair: HL-60 (Mitoxantrone-Sensitive) and HL-60/MX-2 (Mitoxantrone-Resistant)
Experiment [2] concerns the target Lyn (mouse) (Mus musculus, UniProt P25911). The settings on record: ATP 10 μM.

Sequence of Lyn (mouse) (P25911 whole entry): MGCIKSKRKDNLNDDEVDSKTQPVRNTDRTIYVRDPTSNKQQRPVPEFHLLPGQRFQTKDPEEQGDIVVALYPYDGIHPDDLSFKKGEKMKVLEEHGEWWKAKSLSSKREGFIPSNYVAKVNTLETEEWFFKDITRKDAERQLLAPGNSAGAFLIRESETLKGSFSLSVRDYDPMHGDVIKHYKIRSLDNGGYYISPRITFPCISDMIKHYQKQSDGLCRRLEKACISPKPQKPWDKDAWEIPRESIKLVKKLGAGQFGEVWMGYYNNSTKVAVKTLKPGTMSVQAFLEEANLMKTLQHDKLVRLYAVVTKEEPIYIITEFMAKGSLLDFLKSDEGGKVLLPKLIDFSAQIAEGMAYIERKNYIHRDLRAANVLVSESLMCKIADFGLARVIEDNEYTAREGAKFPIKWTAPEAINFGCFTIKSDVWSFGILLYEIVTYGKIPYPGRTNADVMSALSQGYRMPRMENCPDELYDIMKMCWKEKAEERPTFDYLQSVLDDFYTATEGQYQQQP

`CC(C)(C)c1[nH]cnc1/C=c1\[nH]c(=O)/c(=C/c2ccccc2)[nH]c1=O` [KPU-2, tBu-dehydro-PLH]: the half-maximal inhibitory concentration (IC50) came out at 0.0064 µM in experiment [1] and 11.1 µM in experiment [2].
